Key:
[1] = tested on: MOLP-8 human multiple myeloma xenografts; assay: MOLP-8 human multiple myeloma xenograft in CB.17 SCID mice (Xenograft Mouse Experiments A, Part I); type: in vivo
Experimental: In these mice, subcutaneous tumors were established (female CB.17 SCID mice) by inoculation with MOLP-8 cell suspensions. Treatment with a single bolus intravenous injection was conducted when tumor volumes reached an average 113 mm^3. Changes in tumor volume and body weight were monitored twice per week.
Female CB.17 SCID mice, five weeks old, were obtained from Charles River Laboratories.
MOLP-8, a human multiple myeloma cell line, was supplied from ATCC.
Each mouse was inoculated with 1×10^7 MOLP-8 cells subcutaneously into the area under the right shoulder. The total volume was 0.2 ml per mouse, in which the ratio of serum-free medium to matrigel (BD Bioscience, Bedford, Mass.) was 1/1 (v/v). Prior to treatment, the xenograft tumors were monitored daily and were allowed to become established.
Eleven days after tumor cell inoculation, 42 mice were selected based on tumor volumes and body weights. […] The forty-two mice were randomly divided into seven groups (A-G) of six animals each based on tumor volume.
Each of six mice in Group A received 200 μl of PBS as vehicle control.
All agents were intravenously administered as a single bolus injection through a lateral tail vein with a 1 ml syringe fitted with a 27 gauge, ½ inch needle.
(§1) Tumor size was measured twice per week in three dimensions using the LabCat System (Tumor Measurement and Tracking, Innovative Programming Associated, Inc., Princeton, N.J.). The tumor volume in mm^3 was calculated using the methodology described in Tomayko et al., Cancer Chemother.

MOLP-8 tumor xenografts = assay: Bulky MOLP-8 tumor xenograft model in SCID mice (Part II / Xenograft Mouse Experiments B); type: in vivo; details: 450 μg/kg dose; mean time to reach 160 mm^3 minus mean time of control group
Experimental: In a second set of experiments, MOLP-8 cells (1.5×10^7 cells per mouse), suspended in a 50:50 mixture of serum free media and matrigel were injected subcutaneously in the area under the right shoulder in 100 μl. […] Each mouse in the control group (n=6) received 0.2 ml of sterile PBS administered into the lateral tail vein (i.v.) in a bolus injection. All treatment doses were based on conjugated maytansinoid. […] Mice were randomized into eleven groups (n=6) by tumor volume using the LabCat Program. […] The mice were dosed based on the individual body weight.
as §1
In this set of experiments, eighty-five mice were inoculated with MOLP-8 cells (1.5×10^7 cells/mouse) subcutaneously in the right shoulder.

| Substance | homogeneity of anti-tumor activity in individual mice ([1]; 250 μg/kg single i.v. dose) | median tumor volume over time post-inoculation ([1]; 250 μg/kg single i.v. dose, data not shown) | effect on tumor growth compared with PBS-treated animals ([1]; single i.v. bolus, 250 μg/kg (nBT062 antibody […])) | TGD (days), tumor growth delay (MOLP-8 tumor xenografts) |
| --- | --- | --- | --- | --- |
| B-B4-SPP-DM1 [reference compound] | more heterogeneously and therefore less predicable | relatively better results for B-B4-SPP-DM1 than for nBT062-SPP-DM1 | marked delay in tumor growth | – |
| nBT062-DM1: nBT062 conjugate with DM1, linker not stated at this place; TGD matches nBT062-SMCC-DM1 | – | – | – | 18 days |
